Data on ten compounds can be found in patent US20230103791A1 (GLAXOSMITHKLINE INTELLECTUAL PROPERTY DEVELOPMENT LIMITED, priority 2019, published 2023).

T1 sequence (Q9Y5Y9 whole entry): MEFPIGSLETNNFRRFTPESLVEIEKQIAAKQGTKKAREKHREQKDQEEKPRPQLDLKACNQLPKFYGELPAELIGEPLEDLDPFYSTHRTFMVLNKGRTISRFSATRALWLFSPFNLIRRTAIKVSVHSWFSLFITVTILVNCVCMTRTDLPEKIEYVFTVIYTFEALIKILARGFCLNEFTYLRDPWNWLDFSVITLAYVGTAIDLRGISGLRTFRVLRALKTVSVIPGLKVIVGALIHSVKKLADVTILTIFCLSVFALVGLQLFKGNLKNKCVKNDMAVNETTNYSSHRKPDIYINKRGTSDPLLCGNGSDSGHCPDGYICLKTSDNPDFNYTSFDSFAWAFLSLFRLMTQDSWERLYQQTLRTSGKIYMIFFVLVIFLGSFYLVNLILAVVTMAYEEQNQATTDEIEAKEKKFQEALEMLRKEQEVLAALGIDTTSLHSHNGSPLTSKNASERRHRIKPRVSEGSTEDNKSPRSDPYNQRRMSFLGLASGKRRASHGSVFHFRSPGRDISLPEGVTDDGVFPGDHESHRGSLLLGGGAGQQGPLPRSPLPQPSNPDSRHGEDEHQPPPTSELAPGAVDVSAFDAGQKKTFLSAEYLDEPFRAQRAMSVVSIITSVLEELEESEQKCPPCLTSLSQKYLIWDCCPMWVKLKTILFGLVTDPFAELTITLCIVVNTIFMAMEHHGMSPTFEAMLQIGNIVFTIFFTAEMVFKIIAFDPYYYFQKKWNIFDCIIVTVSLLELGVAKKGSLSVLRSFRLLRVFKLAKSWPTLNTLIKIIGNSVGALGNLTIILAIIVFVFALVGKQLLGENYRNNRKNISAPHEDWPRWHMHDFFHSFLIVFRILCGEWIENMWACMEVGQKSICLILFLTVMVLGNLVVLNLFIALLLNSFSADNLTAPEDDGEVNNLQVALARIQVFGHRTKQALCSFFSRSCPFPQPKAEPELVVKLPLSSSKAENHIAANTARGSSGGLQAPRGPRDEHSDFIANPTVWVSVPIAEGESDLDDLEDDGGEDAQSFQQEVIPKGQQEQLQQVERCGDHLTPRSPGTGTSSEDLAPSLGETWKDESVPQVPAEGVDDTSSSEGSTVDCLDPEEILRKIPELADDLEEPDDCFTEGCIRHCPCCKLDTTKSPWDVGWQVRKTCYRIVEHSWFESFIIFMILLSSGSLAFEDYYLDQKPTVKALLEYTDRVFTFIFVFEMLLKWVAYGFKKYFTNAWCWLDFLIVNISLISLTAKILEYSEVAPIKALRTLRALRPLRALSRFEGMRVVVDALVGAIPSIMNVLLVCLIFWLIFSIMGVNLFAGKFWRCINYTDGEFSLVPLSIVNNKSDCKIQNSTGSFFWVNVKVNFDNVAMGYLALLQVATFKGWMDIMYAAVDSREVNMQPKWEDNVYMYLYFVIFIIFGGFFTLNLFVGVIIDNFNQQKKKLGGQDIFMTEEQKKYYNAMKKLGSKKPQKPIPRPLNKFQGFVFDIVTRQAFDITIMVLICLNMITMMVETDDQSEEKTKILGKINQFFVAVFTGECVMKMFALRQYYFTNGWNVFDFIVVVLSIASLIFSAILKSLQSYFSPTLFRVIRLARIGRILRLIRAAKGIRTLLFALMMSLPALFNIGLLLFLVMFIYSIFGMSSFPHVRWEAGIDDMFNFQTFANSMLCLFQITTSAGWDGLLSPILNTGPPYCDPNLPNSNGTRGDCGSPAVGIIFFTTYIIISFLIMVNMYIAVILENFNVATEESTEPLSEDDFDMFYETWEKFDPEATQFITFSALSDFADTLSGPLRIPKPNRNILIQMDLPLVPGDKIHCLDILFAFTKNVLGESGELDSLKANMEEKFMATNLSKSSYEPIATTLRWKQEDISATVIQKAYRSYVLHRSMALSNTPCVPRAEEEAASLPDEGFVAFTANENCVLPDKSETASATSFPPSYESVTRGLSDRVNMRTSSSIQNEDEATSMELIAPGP
T1 sequence (Q07699 19-218 partner): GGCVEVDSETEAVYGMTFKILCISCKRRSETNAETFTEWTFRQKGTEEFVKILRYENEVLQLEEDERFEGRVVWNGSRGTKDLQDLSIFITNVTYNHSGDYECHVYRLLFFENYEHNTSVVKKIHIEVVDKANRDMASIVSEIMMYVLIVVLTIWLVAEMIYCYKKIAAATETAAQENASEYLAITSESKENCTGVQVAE

The assay addresses T1, human Nav1.8 (Homo sapiens, UniProt Q9Y5Y9).
T1 construct: expressed in transfected cells; host or cells: HEK293 (HEK293-Nav1.8)
Description: Nav1.8 sodium channels assay, QPatch 48 HTX electrophysiology in HEK293-Nav1.8 cells. The assay is classed as cell-based. The conditions noted are these: at least one set of experimental runs; read-out: average pIC50 value against Nav1.8 (converted). Here is the method:
Human embryonic kidney […] cells (HEK293) expressing human Nav1.8, human Navβ1 and human TREK1 (HEK293-Nav1.8) were grown at 37° C., 5% CO2 in 150 cm^2 flasks. HEK293-Nav1.8 were passaged every 2-3 days when confluency reached 80-90% in to T175 cell culture flasks.
Pharmacological assessment of the invention was performed using HEK293-Nav1.8 in combination with an assay developed on the QPatch 48 HTX electrophysiological system. HEK293-Nav1.8 were prepared on the day of use by removing culture media, washing in DPBS, adding Accutase (2 ml to cover the surface, aspirate 1 ml then 1.5 min at 37° C.) followed by addition of CHO-SFM II to stop the enzyme digestion and in order to obtain a suspension of 3×10^6 cell/mL.
The invention was prepared in an extracellular solution of the following composition (in mM) NaCl 145, KCl 4, CaCl2 2, MgCl 2, HEPES 1, Glucose 10, pH 7.4 with NaOH Osmolality 300 mOsM/L. The intracellular solution was used of the following composition (in mM) CsF 115, CsCl 20, NaCl 5, EGTA 10, HEPES 10, Sucrose 20, pH 7.2 with CsOH Osmolality 310 mOsm/L.
Utilizing the voltage-clamp mode in the QPatch 48 HTX system a half inactivation state voltage protocol (V1/2) was used to determine pharmacological activity of the invention at Nav1.8 ion channels. A V1/2 protocol was utilized with the following voltage steps: a holding voltage of −100 mV was established followed by a 20 ms voltage step to 0 mV (P1), followed by an inactivating voltage step at −46 mV for 8 seconds, followed by a step to −100 mV for 20 ms, before a 20 ms step to 0 mV (P2) before returning to the holding voltage of −100 mV. This voltage protocol was repeated at a frequency of 0.07 Hz., current magnitude was quantified at the P2 step throughout the recording. Inhibition of the measured current amplitude with the invention was analyzed by fitting a 6-8 point dose-response curve allowing determination of the fifty percent inhibition concentration (IC50). Within the QPatch HTX software, P2 current was normalized according to measurements made at baseline after compound and after positive reference compound and fit to the following equation: […]
To assess current run-down over the course of the experiment vehicle-only wells were utilized and the normalized current with vehicle-only (n.IVEH) was determined. To correct the compound response for run-down, the currents were correct according the following formula: […]
Compounds of the invention are tested for activity against Nav1. 8 sodium channels in the above assay.
Turning to `Cc1[nH]c(=O)ccc1N1CN([C@H]2CC[C@H](F)C2)c2cc(C(F)(F)F)ccc2C1=O` (racemic) [Example 208, 1-((1S,3S)-3-fluorocyclopentyl)-3-(2-methyl-6-oxo-1,6-dihydropyridin-3-yl)-7-(trifluoromethyl)-2,3-dihydroquinazolin-4(1H)-one and 1-((1R,3R)-3-fluorocyclopentyl)-3-(2-methyl-6-oxo-1,6-dihydropyridin-3-yl)-7-(trifluoromethyl)-2.3-dihydroquinazolin-4(1H)-one], the IC50 is 794 to 7940 nM. `Cc1[nH]c(=O)ccc1N1CN([C@@H]2CCCC[C@H]2C)c2cc(C(F)(F)F)ccc2C1=O` (racemic) [Example 278, Mixture of 3-(2-Methyl-6-oxo-1,6-dihydropyridin-3-yl)-1-((1R,2R)-2-methylcyclohexyl)-7-(trifluoromethyl)-2,3-dihydroquinazolin-4(1H)-one and 3-(2-Methyl-6-oxo-1,6-dihydropyridin-3-yl)-1-((1S,2S)-2-methylcyclohexyl)-7-(trifluoromethyl)-2,3-dihydroquinazolin-4(1H)-one]: the IC50 was no more than 100 nM. For `Cc1cc(F)ccc1N1c2cc(C(F)(F)F)ccc2C(=O)N(c2ccc(=O)[nH]c2)C1C` (single isomer, unassigned) [Example 285] the value was 794 to 7940 nM. On to `Cc1cc(=O)[nH]c(C)c1N1CN(c2ccc(F)cc2C(C)C)c2cc(C(F)(F)F)ccc2C1=O` (single isomer, unassigned) [Example 289, 3-(2,4-Dimethyl-6-oxo-1,6-dihydropyridin-3-yl)-1-(4-fluoro-2-isopropylphenyl)-7-(trifluoromethyl)-2,3-dihydroquinazolin-4(1H)-one], for which the IC50 is 794 to 7940 nM.

Take `Cc1cc(=O)[nH]c(C)c1N1CN(c2ccc(F)cc2C(C)C)c2cc(C(F)(F)F)ccc2C1=O` (single isomer, unassigned) [Example 290, 3-(2,4-dimethyl-6-oxo-1,6-dihydropyridin-3-yl)-1-(4-fluoro-2-isopropylphenyl)-7-(trifluoromethyl)-2,3-dihydroquinazolin-4(1H)-one]: the IC50 is 126 to 631 nM. Regarding `Cc1cc(=O)[nH]c(C)c1N1CN(c2ccc(F)cc2C(C)C)c2ccc(Cl)cc2C1=O` (single isomer, unassigned) [Example 291, 6-Chloro-3-(2,4-dimethyl-6-oxo-1,6-dihydropyridin-3-yl)-1-(4-fluoro-2-isopropylphenyl)-2,3-dihydroquinazolin-4(1H)-one], the IC50 was 794 to 7940 nM. The same measure for `Cc1cc(=O)[nH]c(C)c1N1CN(c2ccc(F)cc2C(C)C)c2ccc(Cl)cc2C1=O` (single isomer, unassigned) [Example 292, 6-Chloro-3-(2,4-dimethyl-6-oxo-1,6-dihydropyridin-3-yl)-1-(4-fluoro-2-isopropylphenyl)-2,3-dihydroquinazolin-4(1H)-one]: 126 to 631 nM; for `Cc1[nH]c(=O)ccc1N1CN(c2ccc(F)cc2C(C)(C)C)c2ccc(Cl)cc2C1=O` (single isomer, unassigned) [Example 293, 1-(2-(tert-Butyl)-4-fluorophenyl)-6-chloro-3-(2-methyl-6-oxo-1,6-dihydropyridin-3-yl)-2,3-dihydroquinazolin-4(1H)-one]: 126 to 631 nM. In the case of `Cc1[nH]c(=O)ccc1N1CN(c2ccc(F)cc2C(C)(C)C)c2ccc(Cl)cc2C1=O` (single isomer, unassigned) [Example 294, 1-(2-(tert-Butyl)-4-fluorophenyl)-6-chloro-3-(2-methyl-6-oxo-1,6-dihydropyridin-3-yl)-2,3-dihydroquinazolin-4(1H)-one], the IC50 is no more than 100 nM. Take `Cc1[nH]c(=O)ccc1N1CN(c2ccc(F)cc2C(C)(C)C)c2cc(C(F)(F)F)ccc2C1=O` (single isomer, unassigned) [Example 295, 1-(2-(tert-butyl)-4-fluorophenyl)-3-(2-methyl-6-oxo-1,6-dihydropyridin-3-yl)-7-(trifluoromethyl)-2,3-dihydroquinazolin-4(1H)-one]: the IC50 is 794 to 7940 nM.
